{"source": "PubChem BioAssay AID1259407", "about": "(Chemical Carcinogenesis Research Information System (CCRIS), 2018)", "tested_on": "CCRIS mutagenicity, Ames/micronucleus/aberration tests", "test": "CCRIS mutagenicity studies", "key": {"[1]": {"settings": "Test System: AMES SALMONELLA TYPHIMURIUM, Strain/Indicator: TA98, Metabolic Activation: NONE, Method: PREINCUBATION"}, "[2]": {"settings": "Test System: AMES SALMONELLA TYPHIMURIUM, Strain/Indicator: TA100, Metabolic Activation: NONE, Method: PREINCUBATION"}, "[3]": {"settings": "Test System: AMES SALMONELLA TYPHIMURIUM, Strain/Indicator: TA98, Metabolic Activation: HAMSTER, LIVER, S-9, AROCLOR 1254 (10%), Method: PREINCUBATION"}, "[4]": {"settings": "Test System: AMES SALMONELLA TYPHIMURIUM, Strain/Indicator: TA98, Metabolic Activation: RAT, LIVER, S-9, AROCLOR 1254 (10%), Method: PREINCUBATION"}, "[5]": {"settings": "Test System: AMES SALMONELLA TYPHIMURIUM, Strain/Indicator: TA100, Metabolic Activation: RAT, LIVER, S-9, AROCLOR 1254 (10%), Method: PREINCUBATION"}, "[6]": {"settings": "Test System: AMES SALMONELLA TYPHIMURIUM, Strain/Indicator: TA1535, Metabolic Activation: NONE, Method: PREINCUBATION"}, "[7]": {"settings": "Test System: AMES SALMONELLA TYPHIMURIUM, Strain/Indicator: TA1537, Metabolic Activation: NONE, Method: PREINCUBATION"}, "[8]": {"settings": "Test System: AMES SALMONELLA TYPHIMURIUM, Strain/Indicator: TA100, Metabolic Activation: NONE, Method: STANDARD PLATE"}}, "note": "Calls of active or inactive are those of the source. The rule behind the calls is not given here."}
{"compound": "COc1cc(O)c2c(=O)c(-c3ccc(O)cc3)coc2c1", "values": [{"measurement": "mutagenic call", "setting": "Test System: SYRIAN HAMSTER EMBRYO CELLS, Strain/Indicator: HPRT/6-THIOGUANINE, Metabolic Activation: NONE, Method: PLATE", "value": "inactive; negative"}]}
{"compound": "O=C(c1ccc(O)cc1)c1ccc(O)cc1", "values": [{"measurement": "mutagenic call", "setting": "End Point: In vitro micronucleus, Test System: HepG2 cells, Metabolic Activation: None", "value": "inactive; negative"}]}
{"compound": "Nc1cccc2cccnc12", "values": [{"measurement": "mutagenic call", "setting": "[1]", "value": "active; positive"}, {"measurement": "mutagenic call", "setting": "Test System: AMES SALMONELLA TYPHIMURIUM, Strain/Indicator: TA98, Metabolic Activation: RAT, LIVER, S-9, KANECHLOR 500 OR PHENOBARBITAL AND BETA-NAPHTHOFLAVONE, Method: PREINCUBATION", "value": "active; positive"}, {"measurement": "mutagenic call", "setting": "[2]", "value": "active; positive"}, {"measurement": "mutagenic call", "setting": "Test System: AMES SALMONELLA TYPHIMURIUM, Strain/Indicator: TA100, Metabolic Activation: RAT, LIVER, S-9, KANECHLOR 500 OR PHENOBARBITAL AND BETA-NAPHTHOFLAVONE, Method: PREINCUBATION", "value": "active; positive"}, {"measurement": "mutagenic call", "setting": "Test System: AMES SALMONELLA TYPHIMURIUM, Strain/Indicator: TA100, Metabolic Activation: S-9, Method: PREINCUBATION", "value": "active; positive"}]}
{"compound": "Cc1c(N)nc(C(CC(N)=O)NCC(N)C(N)=O)nc1C(=O)NC(C(=O)NC(C)C(O)C(C)C(=O)NC(C(=O)NCCc1nc(-c2nc(C(=O)NCCCCN(CCCCN=C(N)N)C(=N)N)cs2)cs1)C(C)O)C(OC1OC(CO)C(O)C(O)C1OC1OC(CO)C(O)C(OC(N)=O)C1O)c1cnc[nH]1", "note": "(centres undefined)", "values": [{"measurement": "mutagenic call", "setting": "Test System: AMES SALMONELLA TYPHIMURIUM, Strain/Indicator: TA102, Metabolic Activation: NONE, Method: PREINCUBATION", "value": "active; positive"}]}
{"compound": "CCCCCCCCCCCCC/C([O-])=N/[N+](C)(C)CC(C)O", "note": "(centres undefined)", "values": [{"measurement": "mutagenic call", "setting": "Test System: AMES SALMONELLA TYPHIMURIUM, Strain/Indicator: TA97, Metabolic Activation: HAMSTER, LIVER, S-9, AROCLOR 1254 (10 OR 30%), Method: PREINCUBATION", "value": "inactive; negative"}, {"measurement": "mutagenic call", "setting": "Test System: AMES SALMONELLA TYPHIMURIUM, Strain/Indicator: TA97, Metabolic Activation: NONE, Method: PREINCUBATION", "value": "inactive; negative"}, {"measurement": "mutagenic call", "setting": "Test System: AMES SALMONELLA TYPHIMURIUM, Strain/Indicator: TA97, Metabolic Activation: RAT, LIVER, S-9, AROCLOR 1254 (10 OR 30%), Method: PREINCUBATION", "value": "inactive; negative"}, {"measurement": "mutagenic call", "setting": "[3]", "value": "inactive; negative"}, {"measurement": "mutagenic call", "setting": "Test System: AMES SALMONELLA TYPHIMURIUM, Strain/Indicator: TA98, Metabolic Activation: HAMSTER, LIVER, S-9, AROCLOR 1254 (30%), Method: PREINCUBATION", "value": "inactive; negative"}, {"measurement": "mutagenic call", "setting": "[1]", "value": "inactive; negative"}, {"measurement": "mutagenic call", "setting": "[4]", "value": "inactive; negative"}, {"measurement": "mutagenic call", "setting": "Test System: AMES SALMONELLA TYPHIMURIUM, Strain/Indicator: TA98, Metabolic Activation: RAT, LIVER, S-9, AROCLOR 1254 (30%), Method: PREINCUBATION", "value": "inactive; negative"}, {"measurement": "mutagenic call", "setting": "Test System: AMES SALMONELLA TYPHIMURIUM, Strain/Indicator: TA100, Metabolic Activation: HAMSTER, LIVER, AROCLOR 1254 (10%), Method: PREINCUBATION", "value": "inactive; negative"}, {"measurement": "mutagenic call", "setting": "Test System: AMES SALMONELLA TYPHIMURIUM, Strain/Indicator: TA100, Metabolic Activation: HAMSTER, LIVER, S-9, AROCLOR 1254 (30%), Method: PREINCUBATION", "value": "inactive; negative"}, {"measurement": "mutagenic call", "setting": "[2]", "value": "inactive; negative"}, {"measurement": "mutagenic call", "setting": "[5]", "value": "inactive; negative"}, {"measurement": "mutagenic call", "setting": "Test System: AMES SALMONELLA TYPHIMURIUM, Strain/Indicator: TA100, Metabolic Activation: RAT, LIVER, S-9, AROCLOR 1254 (30%), Method: PREINCUBATION", "value": "inactive; negative"}, {"measurement": "mutagenic call", "setting": "Test System: AMES SALMONELLA TYPHIMURIUM, Strain/Indicator: TA1535, Metabolic Activation: HAMSTER, LIVER, S-9, AROCLOR 1254 (10 OR 30%), Method: PREINCUBATION", "value": "inactive; negative"}, {"measurement": "mutagenic call", "setting": "[6]", "value": "inactive; negative"}, {"measurement": "mutagenic call", "setting": "Test System: AMES SALMONELLA TYPHIMURIUM, Strain/Indicator: TA1535, Metabolic Activation: RAT, LIVER, S-9, AROCLOR 1254 (10 OR 30%), Method: PREINCUBATION", "value": "inactive; negative"}, {"measurement": "mutagenic call", "setting": "Test System: AMES SALMONELLA TYPHIMURIUM, Strain/Indicator: TA1537, Metabolic Activation: HAMSTER, LIVER, S-9, AROCLOR 1254 (10 OR 30%), Method: PREINCUBATION", "value": "inactive; negative"}, {"measurement": "mutagenic call", "setting": "[7]", "value": "inactive; negative"}, {"measurement": "mutagenic call", "setting": "Test System: AMES SALMONELLA TYPHIMURIUM, Strain/Indicator: TA1537, Metabolic Activation: RAT, LIVER, S-9, AROCLOR 1254 (10 OR 30%), Method: PREINCUBATION", "value": "inactive; negative"}]}
{"compound": "CCCCCC(=O)O[C@]1(C(C)=O)CC[C@H]2[C@@H]3CCC4=CC(=O)CC[C@@H]4[C@H]3CC[C@@]21C", "values": [{"measurement": "mutagenic call", "setting": "Test System: AMES SALMONELLA TYPHIMURIUM, Strain/Indicator: TA98, Metabolic Activation: NONE, Method: STANDARD PLATE", "value": "inactive; negative"}, {"measurement": "mutagenic call", "setting": "Test System: AMES SALMONELLA TYPHIMURIUM, Strain/Indicator: TA98, Metabolic Activation: RAT, LIVER, S-9, AROCLOR 1254, Method: STANDARD PLATE", "value": "inactive; negative"}, {"measurement": "mutagenic call", "setting": "[8]", "value": "inactive; negative"}, {"measurement": "mutagenic call", "setting": "Test System: AMES SALMONELLA TYPHIMURIUM, Strain/Indicator: TA100, Metabolic Activation: RAT, LIVER, S-9, AROCLOR 1254, Method: STANDARD PLATE", "value": "inactive; negative"}, {"measurement": "mutagenic call", "setting": "Test System: AMES SALMONELLA TYPHIMURIUM, Strain/Indicator: TA1535, Metabolic Activation: NONE, Method: STANDARD PLATE", "value": "inactive; negative"}, {"measurement": "mutagenic call", "setting": "Test System: AMES SALMONELLA TYPHIMURIUM, Strain/Indicator: TA1535, Metabolic Activation: RAT, LIVER, S-9, AROCLOR 1254, Method: STANDARD PLATE", "value": "inactive; negative"}, {"measurement": "mutagenic call", "setting": "Test System: AMES SALMONELLA TYPHIMURIUM, Strain/Indicator: TA1537, Metabolic Activation: NONE, Method: STANDARD PLATE", "value": "inactive; negative"}, {"measurement": "mutagenic call", "setting": "Test System: AMES SALMONELLA TYPHIMURIUM, Strain/Indicator: TA1537, Metabolic Activation: RAT, LIVER, S-9, AROCLOR 1254, Method: STANDARD PLATE", "value": "inactive; negative"}, {"measurement": "mutagenic call", "setting": "Test System: AMES SALMONELLA TYPHIMURIUM, Strain/Indicator: TA1538, Metabolic Activation: NONE, Method: STANDARD PLATE", "value": "inactive; negative"}, {"measurement": "mutagenic call", "setting": "Test System: AMES SALMONELLA TYPHIMURIUM, Strain/Indicator: TA1538, Metabolic Activation: RAT, LIVER, S-9, AROCLOR 1254, Method: STANDARD PLATE", "value": "inactive; negative"}]}
{"compound": "C=CC(=O)OCC(C)C", "values": [{"measurement": "mutagenic call", "setting": "[3]", "value": "inactive; negative"}, {"measurement": "mutagenic call", "setting": "[1]", "value": "inactive; negative"}, {"measurement": "mutagenic call", "setting": "[4]", "value": "inactive; negative"}, {"measurement": "mutagenic call", "setting": "Test System: AMES SALMONELLA TYPHIMURIUM, Strain/Indicator: TA100, Metabolic Activation: HAMSTER, LIVER, S-9, AROCLOR 1254 (10%), Method: PREINCUBATION", "value": "inactive; negative"}, {"measurement": "mutagenic call", "setting": "[2]", "value": "inactive; negative"}, {"measurement": "mutagenic call", "setting": "[5]", "value": "inactive; negative"}, {"measurement": "mutagenic call", "setting": "Test System: AMES SALMONELLA TYPHIMURIUM, Strain/Indicator: TA1535, Metabolic Activation: HAMSTER, LIVER, S-9, AROCLOR 1254 (10%), Method: PREINCUBATION", "value": "inactive; negative"}, {"measurement": "mutagenic call", "setting": "[6]", "value": "inactive; negative"}, {"measurement": "mutagenic call", "setting": "Test System: AMES SALMONELLA TYPHIMURIUM, Strain/Indicator: TA1535, Metabolic Activation: RAT, LIVER, S-9, AROCLOR 1254 (10%), Method: PREINCUBATION", "value": "inactive; negative"}, {"measurement": "mutagenic call", "setting": "Test System: AMES SALMONELLA TYPHIMURIUM, Strain/Indicator: TA1537, Metabolic Activation: HAMSTER, LIVER, S-9, AROCLOR 1254 (10%), Method: PREINCUBATION", "value": "inactive; negative"}, {"measurement": "mutagenic call", "setting": "[7]", "value": "inactive; negative"}, {"measurement": "mutagenic call", "setting": "Test System: AMES SALMONELLA TYPHIMURIUM, Strain/Indicator: TA1537, Metabolic Activation: RAT, LIVER, S-9, AROCLOR 1254 (10%), Method: PREINCUBATION", "value": "inactive; negative"}]}
{"compound": "CC(=O)Nc1ccnc2ccccc12", "values": [{"measurement": "mutagenic call", "setting": "[1]", "value": "inactive; negative"}, {"measurement": "mutagenic call", "setting": "Test System: AMES SALMONELLA TYPHIMURIUM, Strain/Indicator: TA98, Metabolic Activation: RAT, LIVER, S-9, KANECHLOR 500, Method: PREINCUBATION", "value": "inactive; negative"}, {"measurement": "mutagenic call", "setting": "[2]", "value": "inactive; negative"}, {"measurement": "mutagenic call", "setting": "Test System: AMES SALMONELLA TYPHIMURIUM, Strain/Indicator: TA100, Metabolic Activation: RAT, LIVER, S-9, KANECHLOR 500, Method: PREINCUBATION", "value": "inactive; negative"}]}
{"compound": "O=C1OCC(C(Br)Br)=C1Cl", "values": [{"measurement": "mutagenic call", "setting": "[8]", "value": "active; positive"}]}
